Test results taken from US11376308B2, “Use of FKBP-L polypeptides and nucleic acids for the treatment of obesity” (The Queen's University of Belfast, priority 2016, dated 2022).
Entries after “also recorded” stand apart in the source; their conditions may differ.

Experiments:
[1] = Oral Glucose Tolerance Test (OGTT) in high fat diet fed mice given ALM201; format: in vivo
Protocol: An OGTT was performed by fasting the mice for 4 h, taking baseline blood glucose, administering 40% D-glucose, and recording two further blood glucose readings at 30 and 60 min.
(§1) For the high fat diet study, 40 age and sex matched mice were chosen with an age range of 6-10 weeks at the experimental start date. Mice were randomised into four groups: PBS Fkbpl^+/−, PBS Fkbpl^+/+, ALM201 Fkbpl^+/− and ALM201 Fkbpl^+/+. Power calculations were utilised to predict the number of mice needed to show statistical significance. Taking group 1 mean weight to be 25 g and group 2 mean weight to be 45 g, with a standard deviation of 13 gives a sample size of eight mice per group when powered to 0.8, with α=0.05. 10 mice per treatment group were used. All mice were weighed at experimental start date, biweekly for the first three weeks to ensure health, and weekly thereafter. Mice were solely fed a high fat diet comprising 60% fat (Cat no. F3282, Dates and, USA). Food provided was weighed biweekly for three weeks, then weekly, to ensure equal food provisions between boxes, with an allowance of 5 g per mouse per day assumed. ALM201 was reconstituted in PBS, stored at −20° C., and injected subcutaneously at a dose of 0.3 mg/kg, 5 days per week.

TIMP1 = experiment: Ray Biotech cytokine array on spent medium of MDA231 cells, validated by ELISA: TIMP1; format: cell-based; settings: spent medium of MDA231 cells after exposure to ALM201
Text: (§2) FIGS. 7A and 7B illustrate the level of secretion of leptin, IL8 and TIMP Secretion after treatment with FKBP-L's therapeutic peptide, ALM201—A Ray Biotech cytokine array was used to measure cytokines in the spent medium of MDA231 cells after exposure to ALM201. Blots were then quantitated by densitometric analysis using Ray Biotech software.
(§3) A Ray Biotech cytokine array was used to measure cytokines in the spent medium of MDA231 cells after exposure to ALM201. Blots were then quantitated by densitometric analysis using Ray Biotech software. IL8 and TIMP1 levels were then validated by ELISA in two or three independent repeats. A reduction in these cytokines would reduce the obesity phenotype.

IL-8 = experiment: Ray Biotech cytokine array on spent medium of MDA231 cells, validated by ELISA: IL-8; format: cell-based; settings: spent medium of MDA231 cells after exposure to ALM201
Text: as §2, §3

leptin = experiment: Ray Biotech cytokine array on spent medium of MDA231 cells: leptin; format: cell-based; settings: spent medium of MDA231 cells after exposure to ALM201
Text: as §2, §3

SIRT1 = SIRT1 protein levels following ALM201 treatment (western blot); format: cell-based; settings: FIG. 6D
Protocol: For assessing protein levels: Cell lysates were prepared in RIPA buffer from MDA-MB-231, A3, MCF-7 and D2 cells and subjected to Western Blotting. The membrane was then probed with a 1:1000 dilution of rabbit FKBP-L IgG polyclonal primary antibody (Proteintech UK, cat: 10060-1-AP), 1:1000 rabbit SIRT1 IgG monoclonal primary antibody (Abcam, UK cat: ab32441) in 3% blocking solution overnight on a rocker at 4° C. The membrane was washed with PBS-Tween and then PBS for 5 min each, and was probed for an hour with a 1:5000 dilution of ECL anti rabbit IgG HRP linked whole secondary antibody (GE Healthcare UK Ltd.) Membranes were washed and developed as in section 2.2.2.11.3. Membranes were then stripped with Restore™ Western Blot Stripping Buffer (Thermo Scientific) for 10 min, washed, re-probed with rabbit GAPDH primary antibody (Sigma-Aldrich), and a 1:5000 dilution of ECL anti rabbit IgG HRP linked whole secondary antibody (GE Healthcare UK Ltd.) and developed as above. SIRT1 was identified as a band around 110 kDa, FKBP-L at 42 kDa.

[2] = High fat diet weight gain study in Fkbpl+/- and Fkbpl+/+ mice, ALM201 vs PBS; format: in vivo; settings: ALM201 0.3 mg/kg subcutaneously 5 days per week
Text: as §1

IL-1β = experiment: LPS-induced IL-1β secretion in THP-1 monocytes (ELISA); format: cell-based; settings: 1000 ng/ml LPS, conditioned medium 24 h later
Protocol: FIG. 13 illustrates the FKBP-L peptide, AD-01, abrogates LPS-induced activation of IL-1β in THP-1 monocytes—Cells were stimulated with 1000 ng of LPS.
(§4) THP1 cells were treated with 100 ng/ml LPS and cell lysates harvested and subjected to western blotting as described in Example 4, using primary antibody against pSER36 NFkB (at a 1:1000 dilution) and a 1:5000 dilution of ECL anti rabbit IgG HRP linked whole secondary antibody (GE Healthcare UK Ltd.). To measure IL-1β levels THP1 cells were treated with 1000 ng/ml LPS±AD-01 and conditioned cell culture medium was collected 24 h later and assessed using an IL-1β ELISA.

NFkB = experiment: LPS-induced NFkB phosphorylation in THP-1 monocytes (western blot); format: cell-based; settings: 100 ng/ml LPS, lysates 6 hour after treatment
Protocol: FIG. 12 illustrates the FKBP-L peptide, AD-01 (SEQ ID NO: 10), abrogates LPS-induced activation of NFkB in THP-1 monocytes—Cells were stimulated with 100 ng of LPS which results in activation of NFkB phosphorylation.
as §4

**Q.** What does the source list for “NH2-IRQQPRDPPTETLELEVSPDPAS-OH (H-IRQQPRDPPTETLELEVSPDPAS-OH) [ALM201]”?
**A.** blood glucose / glucose intolerance (OGTT) ([1]; Fkbpl+/- mice given ALM201 vs Fkbpl+/- mice given PBS, readings at 30 and 60 min after 40% glucose): significantly reduced; also recorded: significantly lower blood glucose readings; difference in blood glucose levels between Fkbpl+/- and Fkbpl+/+ mice (OGTT) ([1]; both genotypes administered ALM201): no significant difference; secreted TIMP1 levels (TIMP1): reduce; secreted IL-8 levels (IL-8): reduce; secreted leptin levels (leptin): reduce; SIRT1 protein levels (SIRT1): increased SIRT1 levels; weight gain ([2]; Fkbpl+/- mice, 0.3 mg/kg): significantly reduced; also recorded: normalises the mouse weight gain; also recorded: reduces and normalises weight gain; weight gain ([2]; wild-type (Fkbpl+/+) mice): partially prevented weight gain

**Q.** For “NH2-QIRQQPRDPPTETLELEVSPDPAS-OH (H-QIRQQPRDPPTETLELEVSPDPAS-OH) [AD-01]”, which “LPS-induced IL-1β secretion” value (IL-1β) is on record?
**A.** dramatic reduction; also recorded: significantly abrogated

**Q.** What about the “LPS-induced activation of NFkB (phosphorylation)” value (NFkB) of the same substance?
**A.** inhibit; also recorded: abrogated that increase
